How the values were obtained:
Format in all cases: cell-based
RS4;11-BCL-2 F104L cells = assay: Cell proliferation assay (MTS), RS4;11-BCL-2 F104L engineered cells; conditions: Homo sapiens, 120 h, read-out: RS4, 11 BCL2-F104L IC50
From the text: MTS testing kit was purchased from Promega (Madison, WI, USA). The RPMI-1640, Fetal bovine serum and Penicillin-Streptomycin were purchased from BI (Biological Industries, Beit Haemek, Israel). Puromycin was purchased from Beyotime (shanghai, China). Dimethyl sulfoxide (DMSO) was purchased from Sigma (St. Louis., MO, USA). RS4;11-BCL-2 G101V (Cobioer Lot. #: CBD2021063013P4), RS4;11-BCL-2 D103E (Cobioer Lot. #: CBD2021063013P4), RS4;11-BCL-2 D103Y (Cobioer Lot. #: CBD2022012101P4) and RS4;11-BCL-2 F104L (Cobioer Lot. #: CBD2021063014P4) cells were cultured in RPMI1640 supplemented with 1 ug/mL puromycin, 100 U/mL Penicillin-Streptomycin and 10% FBS.
To investigate whether a compound is able to inhibit the activity of BCL-2 mutation in cells, a mechanism-based assay using engineered cell lines stably overexpressing BCL-2 mutation (RS4;11-BCL-2 G101V, RS4;11-BCL-2 D103E, RS4;11-BCL-2 D103Y, and RS4;11-BCL-2 F104L) was developed. In this assay, the inhibition of BCL-2 mutation was reflected by the inhibition of cell proliferation of engineered RS4;11 cells. Cells were plated into 96-well plates at optimized cell density (RS4;11-BCL-2 G101V: 5000 cells/well; RS4;11-BCL-2 D103E: 7500 cells/well; RS4;11-BCL-2 D103Y: 7500 cells/well; RS4;11-BCL-2 F104L: 5000 cells/well). Plates were incubated at 37° C., with 5% CO2 for 4 h (RS4;11-BCL-2 G101V, RS4;11-BCL-2 F104L) and 24 h (RS4;11-BCL-2 D103E, RS4;11-BCL-2 D103Y), respectively. Compounds were serially diluted and added to the plates with the final concentrations of 10000, 3333.3, 1111.1, 370.4, 123.5, 41.2, 13.7, 4.6 and 1.5 nM. Plates were incubated at 37° C., with 5% CO2 for 120 h (RS4; 11-BCL-2 G101V, RS4; 11-BCL-2 F104L) and 72 h (RS4;11-BCL-2 D103E, RS4;11-BCL-2 D103Y), respectively. 20 μl MTS was added into each well and the plates were incubated at 37° C., with 5% CO2 exactly for 2 h. The absorbance was measured by a microplate reader at 490 nm. IC50 values were calculated using GraphPad Prism 8.0 software.

RS4;11-BCL-2 D103E cells = assay: Cell proliferation assay (MTS), RS4;11-BCL-2 D103E engineered cells; conditions: Homo sapiens, 72 h, read-out: RS4, 11 BCL2-D103E IC50
How it was run: (§1)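 RS4;11 cells stably overexpressing mutant BCL-2 were seeded and pre-incubated 4 h (G101V, F104L) or 24 h (D103E, D103Y), then exposed to compound at 1.5–10000 nM for 120 h (G101V, F104L) or 72 h (D103E, D103Y) at 37 °C. Viability was read by MTS absorbance at 490 nm after 2 h; IC50 fitted.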

Toledo cells = assay: Cell proliferation assay (MTS), Toledo cells; conditions: Homo sapiens, 72 h
How it was run: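 Toledo cells (RPMI-1640, 10% FBS) seeded at 30000 cells/well, rested 4 h, then exposed 72 h at 37 °C, 5% CO2 to compound at nine final concentrations, 1.5–10000 nM. Viability by MTS (2 h), absorbance at 490 nm. IC50 from the concentration-response.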

RS4;11-BCL-2 G101V cells = assay: Cell proliferation assay (MTS), RS4;11-BCL-2 G101V engineered cells; conditions: Homo sapiens, 120 h, read-out: RS4, 11 BCL2-G101V IC50
How it was run: as §1

Row | IC50 (RS4;11-BCL-2 F104L cells) [nM] | IC50 (RS4;11-BCL-2 D103E cells) [nM] | IC50 (RS4;11-BCL-2 G101V cells) [nM] | SMILES | IC50 (Toledo cells) [nM]
1 | 1 |  |  | COc1cc(CN2CCC(N3CC4(CCN(c5ccc(C(=O)NS(=O)(=O)c6cnc(NC[C@H]7CC[C@](C)(O)CC7)c([N+](=O)[O-])c6)c(Oc6cc7c(F)c[nH]c7nc6OC)c5)CC4)C3)[C@H](c3ccccc3C(C)C)C2)ccn1 (single isomer, unassigned) [Example 363, 2-((3-fluoro-6-methoxy-1H-pyrrolo[2,3-b]pyridin-5-yl)oxy)-N-((6-((((1r,4r)-4-hydroxy-4-methylcyclohexyl)methyl)amino)-5-nitropyridin-3-yl)sulfonyl)-4-(2-(3-(2-isopropylphenyl)-1-((2-methoxypyridin-4-yl)methyl)piperidin-4-yl)-2,7-diazaspiro[3.5]nonan-7-yl)benzamide] | 
2 | 1 |  |  | COc1ccc(CN2CCC(N3CC4(CCN(c5ccc(C(=O)NS(=O)(=O)c6cnc(NC[C@H]7CC[C@](C)(O)CC7)c([N+](=O)[O-])c6)c(Oc6cc7c(F)c[nH]c7nc6OC)c5)CC4)C3)C(c3ccccc3C(C)C)C2)cc1 (some centres unmarked) [Example 19, 2-((3-fluoro-6-methoxy-1H-pyrrolo[2,3-b]pyridin-5-yl)oxy)-N-((6-((((1r,4r)-4-hydroxy-4-methylcyclohexyl)methyl)amino)-5-nitropyridin-3-yl)sulfonyl)-4-(2-(3-(2-isopropylphenyl)-1-(4-methoxybenzyl)piperidin-4-yl)-2,7-diazaspiro[3.5]nonan-7-yl)benzamide] | 
3 |  | 2 | 1 | COc1nc2[nH]cc(F)c2cc1Oc1cc(N2CCC3(CC2)CC(N2CCN(Cc4cnn(C5CC5)c4)C[C@H]2c2ccccc2C(C)C)C3)ccc1C(=O)NS(=O)(=O)c1cnc(NC[C@H]2CC[C@](C)(O)CC2)c([N+](=O)[O-])c1 [Example 133, 4-(2-((R)-4-((1-cyclopropyl-1H-pyrazol-4-yl)methyl)-2-(2-isopropylphenyl)piperazin-1-yl)-7-azaspiro[3.5]nonan-7-yl)-2-((3-fluoro-6-methoxy-1H-pyrrolo[2,3-b]pyridin-5-yl)oxy)-N-((6-((((1r,4r)-4-hydroxy-4-methylcyclohexyl)methyl)amino)-5-nitropyridin-3-yl)sulfonyl)benzamide] | 1
4 |  | 1 | 1 | CCOc1nc2[nH]cc(F)c2cc1Oc1cc(N2CCC3(CC2)CC(N2CCN(CC)C[C@H]2c2ccccc2C(C)C)C3)ccc1C(=O)NS(=O)(=O)c1cnc(NC[C@H]2CC[C@](C)(O)CC2)c([N+](=O)[O-])c1 [Example 141, 2-((6-ethoxy-3-fluoro-1H-pyrrolo[2,3-b]pyridin-5-yl)oxy)-4-(2-((R)-4-ethyl-2-(2-isopropylphenyl)piperazin-1-yl)-7-azaspiro [3.5]nonan-7-yl)-N-((6-((((1r,4r)-4-hydroxy-4-methylcyclohexyl)methyl)amino)-5-nitropyridin-3-yl)sulfonyl)benzamide] | 1
5 |  | 1 | 1 | COCCN1CCN(C2CC3(CCN(c4ccc(C(=O)NS(=O)(=O)c5cnc(NC[C@H]6CC[C@](C)(O)CC6)c([N+](=O)[O-])c5)c(Oc5cnc6[nH]cc(F)c6c5)c4)CC3)C2)[C@H](c2ccccc2C(C)C)C1 [Example 203, 2-((3-fluoro-1H-pyrrolo[2,3-b]pyridin-5-yl)oxy)-N-((6-((((1r,4r)-4-hydroxy-4-methylcyclohexyl)methyl)amino)-5-nitropyridin-3-yl)sulfonyl)-4-(2-((R)-2-(2-isopropylphenyl)-4-(2-methoxyethyl)piperazin-1-yl)-7-azaspiro[3.5]nonan-7-yl)benzamide] | 1
6 |  | 1 | 1 | COc1cc(CN2CCN(C3CC4(CCN(c5ccc(C(=O)NS(=O)(=O)c6cnc(NC[C@H]7CC[C@](C)(O)CC7)c([N+](=O)[O-])c6)c(Oc6cnc7[nH]cc(F)c7c6)c5)CC4)C3)[C@H](c3ccccc3C(C)C)C2)ccn1 [Example 243, 2-((3-fluoro-1H-pyrrolo[2,3-b]pyridin-5-yl)oxy)-N-((6-((((1r,4r)-4-hydroxy-4-methylcyclohexyl)methyl)amino)-5-nitropyridin-3-yl)sulfonyl)-4-(2-((R)-2-(2-isopropylphenyl)-4-((2-methoxypyridin-4-yl)methyl)piperazin-1-yl)-7-azaspiro[3.5]nonan-7-yl)benzamide] | 1
7 |  | 1 | 1 | COc1ccc(CN2CCN(C3CC4(CCN(c5ccc(C(=O)NS(=O)(=O)c6cnc(NC[C@H]7CC[C@](C)(O)CC7)c([N+](=O)[O-])c6)c(Oc6cnc7[nH]cc(F)c7c6)c5)CC4)C3)[C@H](c3ccccc3C(C)C)C2)c2nc(C)oc12 [Example 244, 2-((3-fluoro-1H-pyrrolo[2,3-b]pyridin-5-yl)oxy)-N-((6-((((1r,4r)-4-hydroxy-4-methylcyclohexyl)methyl)amino)-5-nitropyridin-3-yl)sulfonyl)-4-(2-((R)-2-(2-isopropylphenyl)-4-((7-methoxy-2-methylbenzo[d]oxazol-4-yl)methyl)piperazin-1-yl)-7-azaspiro[3.5]nonan-7-yl)benzamide] | 1
8 |  | 1 | 1 | CC(C)c1ccccc1[C@@H]1CN(Cc2cnn(C3CC3)c2)CCN1C1CC2(CCN(c3ccc(C(=O)NS(=O)(=O)c4cnc(NC[C@H]5CC[C@](C)(O)CC5)c([N+](=O)[O-])c4)c(Oc4cnc5[nH]cc(F)c5c4)c3)CC2)C1 [Example 247, 4-(2-((R)-4-((1-cyclopropyl-1H-pyrazol-4-yl)methyl)-2-(2-isopropylphenyl)piperazin-1-yl)-7-azaspiro[3.5]nonan-7-yl)-2-((3-fluoro-1H-pyrrolo[2,3-b]pyridin-5-yl)oxy)-N-((6-((((1r,4r)-4-hydroxy-4-methylcyclohexyl)methyl)amino)-5-nitropyridin-3-yl)sulfonyl)benzamide] | 1
9 |  | 3 | 1 | COc1c(F)cc(CN2CCN(C3CC4(CCN(c5ccc(C(=O)NS(=O)(=O)c6cnc(NC[C@H]7CC[C@](C)(O)CC7)c([N+](=O)[O-])c6)c(Oc6cnc7[nH]cc(F)c7c6)c5)CC4)C3)[C@H](c3ccccc3C(C)C)C2)cc1F [Example 248, 4-(2-((R)-4-(3,5-difluoro-4-methoxybenzyl)-2-(2-isopropylphenyl)piperazin-1-yl)-7-azaspiro[3.5]nonan-7-yl)-2-((3-fluoro-1H-pyrrolo[2,3-b]pyridin-5-yl)oxy)-N-((6-((((1r,4r)-4-hydroxy-4-methylcyclohexyl)methyl)amino)-5-nitropyridin-3-yl)sulfonyl)benzamide] | 1
10 |  | 1 | 1 | COc1ccc(CN2CCN(C3CC4(CCN(c5ccc(C(=O)NS(=O)(=O)c6cnc(NC[C@H]7CC[C@](C)(O)CC7)c([N+](=O)[O-])c6)c(Oc6cnc7[nH]cc(F)c7c6)c5)CC4)C3)[C@H](c3ccccc3C(C)C)C2)cn1 [Example 252, 2-((3-fluoro-1H-pyrrolo[2,3-b]pyridin-5-yl)oxy)-N-((6-((((1r,4r)-4-hydroxy-4-methylcyclohexyl)methyl)amino)-5-nitropyridin-3-yl)sulfonyl)-4-(2-((R)-2-(2-isopropylphenyl)-4-((6-methoxypyridin-3-yl)methyl)piperazin-1-yl)-7-azaspiro[3.5]nonan-7-yl)benzamide] | 1

From patent US20250122191A1, “COMPOUNDS AS BCL-2 INHIBITORS” (Fochon Biosciences, Ltd, priority 2021, published 2025)
